Our source for the melting point values is US7459451B2, “Pyrazolopyridine derivatives” (Astellas Pharma Inc., priority 2004, dated 2008).

Some results are limits rather than exact numbers.

A word on the melting point: it is the temperature, or range, at which the solid turns liquid. `CCOC(=O)c1c(C)nc2c(cnn2CC)c1-c1ccnc(Cl)c1` [Example 3, Ethyl 4-(2-chloro-4-pyridyl)-1-ethyl-6-methyl-1H-pyrazolo[3,4-b]pyridine-5-carboxylate] registered a melting point of 109 to 110 °C.

Molecule `CCn1ncc2c(-c3cncc(C)c3)c(C(=O)NCc3ccc(OC)cc3)c(-c3ccccc3)nc21` [Example 65, 1-ethyl-N-(4-methoxybenzyl)-4-(5-methyl-3-pyridyl)-6-phenyl-1H-pyrazolo[3,4-b]pyridine-5-carboxamide] had a melting point of 203 to 204 °C.

`CCn1ncc2c(-c3cncc(C)c3)c(C(=O)NC3Cc4ccccc4C3)c(-c3ccccc3)nc21` [Example 66, N-(2,3-Dihydro-1H-inden-2-yl)-1-ethyl-4-(5-methyl-3-pyridyl)-6-phenyl-1H-pyrazolo[3,4-b]pyridine-5-carboxamide] returned a melting point of 269 to 270 °C.

`CCn1ncc2c(-c3cncc(C)c3)c(C#N)c(C)nc21` [Example 74, 1-Ethyl-6-methyl-4-(5-methyl-3-pyridyl)-1H-pyrazolo[3,4-b]pyridine-5-carbonitrile] had a melting point of 160 to 161 °C.

`CCn1ncc2c(-c3cncc(C)c3)c(CCC(=O)O)c(-c3ocnc3C)nc21` [Example 79, 3-[1-ethyl-6-(4-methyl-1,3-oxazol-5-yl)-4-(5-methyl-3-pyridyl)-1H-pyrazolo[3,4-b]pyridin-5-yl]propanoic acid] returned a melting point of 184 to 185.5 °C.

In turn, `CCn1ncc2c(-c3cncc(C)c3)c(/C=C/C(=O)O)c(COC)nc21` [Example 82, (2E)-3-[1-ethyl-6-(methoxymethyl)-4-(5-methyl-3-pyridyl)-1H-pyrazolo[3,4-b]pyridin-5-yl]acrylic acid] gave a melting point of 195 to 196 °C.

The molecule `CCn1ncc2c(-c3cncc(C)c3)c(/C=C/C(=O)O)c(C)nc21` [Example 85, (2E)-3-[1-Ethyl-6-methyl-4-(5-methyl-3-pyridyl)-1H-pyrazolo[3,4-b]pyridin-5-yl]acrylic acid] showed a melting point of 239 to 241 °C.

In turn, `CCn1ncc2c(-c3cncc(Br)c3)c(C(=O)O)c(COC)nc21` [Example 86, 4-(5-Bromo-3-pyridyl)-1-ethyl-6-(methoxymethyl)-1H-pyrazolo[3,4-b]pyridine-5-carboxylic acid] returned a melting point of 162 to 163 °C.

The molecule `CCn1ncc2c(-c3cncc(C)c3)c(/C=C/C(=O)O)c(COCC3CC3)nc21` [Example 87, (2E)-3-[6-[(Cyclopropylmethoxy)methyl]-1-ethyl-4-(5-methyl-3-pyridyl)-1H-pyrazolo[3,4-b]pyridin-5-yl]acrylic acid] registered a melting point of 187 to 189 °C.

Regarding `CCn1ncc2c(-c3cncc(Br)c3)c(/C=C/C(=O)O)c(COCC3CC3)nc21` [Example 88, (2E)-3-{4-(5-Bromo-3-pyridyl)-6-[(cyclopropylmethoxy)methyl]-1-ethyl-1H-pyrazolo[3,4-b]pyridin-5-yl}acrylic acid], the melting point was 183 to 184 °C.

Molecule `Cc1cncc(-c2c(/C=C/C(=O)O)c(C)nc3c2cnn3C)c1` [Example 90, (2E)-3-[1,6-Dimethyl-4-(5-methyl-3-pyridyl)-1H-pyrazolo[3,4-b]pyridin-5-yl]acrylic acid] gave a melting point of 269 to 272 °C.

`CCn1ncc2c(-c3cncc(C)c3)c(CCC(=O)O)c(COC)nc21` [Example 92, 3-[1-Ethyl-6-(methoxymethyl)-4-(5-methyl-3-pyridyl)-1H-pyrazolo[3,4-b]pyridin-5-yl]propanoic acid] gave a melting point of 154 to 155 °C.

`CCn1ncc2c(-c3cncc(Br)c3)c(CCC(=O)O)c(C)nc21` [Example 93, 3-[4-(5-Bromo-3-pyridyl)-1-ethyl-6-methyl-1H-pyrazolo[3,4-b]pyridin-5-yl]propanoic acid] yielded a melting point of 178 to 179.5 °C.

In the case of `CCn1ncc2c(-c3cncc(C)c3)c(CCC(=O)O)c(C)nc21` [Example 94, 3-[1-Ethyl-6-methyl-4-(5-methyl-3-pyridyl)-1H-pyrazolo[3,4-b]pyridin-5-yl]propanoic acid], the melting point lay within 179 to 181 °C.

In turn, `CCn1ncc2c(-c3cncc(C)c3)c(CCC(=O)O)c(COCC3CCCCC3)nc21` [Example 96, 3-[6-[(Cyclohexylmethoxy)methyl]-1-ethyl-4-(5-methyl-3-pyridyl)-1H-pyrazolo[3,4-b]pyridin-5-yl]propanoic acid] showed a melting point of 183 to 184 °C.

As to `Cc1cncc(-c2c(CCC(=O)O)c(C)nc3c2cnn3C)c1` [Example 97, 3-[1,6-Dimethyl-4-(5-methyl-3-pyridyl)-1H-pyrazolo[3,4-b]pyridin-5-yl]propanoic acid], the melting point lay within 205 to 207 °C.

`CCn1ncc2c(-c3cncc(C)c3)c(CCC(=O)O)c(-c3ccccc3)nc21` [Example 98, 3-[1-Ethyl-4-(5-methyl-3-pyridyl)-6-phenyl-1H-pyrazolo[3,4-b]pyridin-5-yl]propanoic acid] showed a melting point of 235 to 237 °C.

As for `CCn1ncc2c(-c3cncc(C)c3)c(CCC(=O)O)c(C#N)nc21` [Example 100, 3-[6-Cyano-1-ethyl-4-(5-methyl-3-pyridyl)-1H-pyrazolo[3,4-b]pyridin-5-yl]propanoic acid], the melting point is 209 to 210 °C.

As for `CCn1ncc2c(-c3cncc(C)c3)c(/C=C/C(=O)O)c(C3CCCCC3)nc21` [Example 190, (2E)-3-[6-Cyclohexyl-1-ethyl-4-(5-methyl-3-pyridyl)-1H-pyrazolo[3,4-b]pyridin-5-yl]acrylic acid], the melting point was in the range of 255 to 257 °C.

For the molecule `CCn1ncc2c(-c3cccc(Cl)c3)c(/C=C/C(=O)O)c(COC)nc21` [Example 191, (2E)-3-[4-(3-Chlorophenyl)-1-ethyl-6-(methoxymethyl)-1H-pyrazolo[3,4-b]pyridin-5-yl]acrylic acid], the melting point was 234 to 235 °C.

For `CCn1ncc2c(-c3cncc(C)c3)c(CCC(=O)O)c(C(C)C)nc21` [Example 194, 3-[1-Ethyl-6-isopropyl-4-(5-methyl-3-pyridyl)-1H-pyrazolo[3,4-b]pyridin-5-yl]propanoic acid], the melting point lay within 203 to 205 °C.

`CCC(CC)c1nc2c(cnn2CC)c(-c2cncc(C)c2)c1/C=C/C(=O)O` [Example 201, (2E)-3-[1-Ethyl-6-(1-ethylpropyl)-4-(5-methyl-3-pyridyl)-1H-pyrazolo[3,4-b]pyridin-5-yl]acrylic acid]: the melting point lay in the range of 197 to 199 °C.

Take `CCn1ncc2c(-c3ccnc(Cl)c3)c(/C=C/C(=O)O)c(-c3ccccc3)nc21` [Example 204, (2E)-3-[4-(2-Chloro-4-pyridyl)-1-ethyl-6-phenyl-1H-pyrazolo[3,4-b]pyridin-5-yl]acrylic acid]: the melting point was more than 250 °C.

With `CCn1ncc2c(CC3CCCCC3)c(/C=C/C(=O)O)c(-c3ccccc3)nc21` [Example 206, (2E)-3-[4-(Cyclohexylmethyl)-1-ethyl-6-phenyl-1H-pyrazolo[3,4-b]pyridin-5-yl]acrylic acid], the melting point is 201 to 202 °C.

On to `CCn1ncc2c(-c3ccc(Cl)s3)c(/C=C/C(=O)O)c(-c3ccccc3)nc21` [Example 207, (2E)-3-[4-(5-Chloro-2-thienyl)-1-ethyl-6-phenyl-1H-pyrazolo[3,4-b]pyridin-5-yl]acrylic acid], for which the melting point lay within 187 to 188 °C.

For the molecule `CCn1ncc2c(-c3ccc(Cl)nc3)c(/C=C/C(=O)O)c(-c3ccccc3)nc21` [Example 208, (2E)-3-[4-(6-Chloro-3-pyridyl)-1-ethyl-6-phenyl-1H-pyrazolo[3,4-b]pyridin-5-yl]acrylic acid], the melting point lay in the range of 255 to 258 °C.

For `CCn1ncc2c(-c3ccccc3)c(/C=C/C(=O)O)c(-c3ccccc3)nc21` [Example 211, (2E)-3-(1-Ethyl-4,6-diphenyl-1H-pyrazolo[3,4-b]pyridin-5-yl)acrylic acid], the melting point is more than 250 °C.

For the molecule `CCn1ncc2c(-c3cncc(C)c3)c(/C=C/C(=O)O)c(C(C)C)nc21` [Example 212, (2E)-3-[1-Ethyl-6-isopropyl-4-(5-methyl-3-pyridyl)-1H-pyrazolo[3,4-b]pyridin-5-yl]acrylic acid], the melting point fell in the range of 247 to 248 °C.

For `CCn1ncc2c(-c3cncc(Cl)c3)c(/C=C/C(=O)O)c(-c3ccccc3)nc21` [Example 213, (2E)-3-[4-(5-Chloro-3-pyridyl)-1-ethyl-6-phenyl-1H-pyrazolo[3,4-b]pyridin-5-yl]acrylic acid], the melting point lay in the range of 242 to 244 °C.

`CCn1ncc2c(-c3cncc(C)c3)c(/C=C/C(=O)O)c(C3CC3)nc21` [Example 214, (2E)-3-[6-Cyclopropyl-1-ethyl-4-(5-methyl-3-pyridyl)-1H-pyrazolo[3,4-b]pyridin-5-yl]acrylic acid]: the melting point fell in the range of 221 to 222 °C.

Consider `CCn1ncc2c(-c3cncc(C)c3)c(/C=C/C(=O)O)c(CC(C)C)nc21` [Example 215, (2E)-3-[1-Ethyl-6-isobutyl-4-(5-methyl-3-pyridyl)-1H-pyrazolo[3,4-b]pyridin-5-yl]acrylic acid], for which the melting point is 212 to 213 °C.

In turn, `CCn1ncc2c(-c3cncc(OC)c3)c(/C=C/C(=O)O)c(-c3ccccc3)nc21` [Example 218, (2E)-3-[1-Ethyl-4-(5-methoxy-3-pyridyl)-6-phenyl-1H-pyrazolo[3,4-b]pyridin-5-yl]acrylic acid] gave a melting point of 253 to 254 °C.

For `CCn1ncc2c(-c3ccc(Cl)s3)c(/C=C/C(=O)O)c(C(C)C)nc21` [Example 224, (2E)-3-[4-(5-Chloro-2-thienyl)-1-ethyl-6-isopropyl-1H-pyrazolo[3,4-b]pyridin-5-yl]acrylic acid], the melting point lay in the range of 163 to 165 °C.

As to `CCn1ncc2c(-c3cncc(Br)c3)c(/C=C/C(=O)O)c(C(C)C)nc21` [Example 225, (2E)-3-[4-(5-Bromo-3-pyridyl)-1-ethyl-6-isopropyl-1H-pyrazolo[3,4-b]pyridin-5-yl]acrylic acid], the melting point lay within 234 to 235 °C.

Regarding `CCn1ncc2c(-c3cncc(Br)c3)c(/C=C/C(=O)O)c(COC)nc21` [Example 226, (2E)-3-[4-(5-Bromo-3-pyridyl)-1-ethyl-6-(methoxymethyl)-1H-pyrazolo[3,4-b]pyridin-5-yl]acrylic acid], the melting point lay within 180 to 182 °C.
